Measurements: US10053487B2, “Neuroactive 19-alkoxy-17(20)-Z-vinylcyano-substituted steroids, prodrugs thereof, and methods of treatment using same” (priority 2012, dated 2018)
Like-named read-outs stand apart in the source and are kept apart here.

How the values were obtained:
[1] = molecular target: T1, GABAA receptors (picrotoxin binding site); experiment: [35S]-TBPS displacement (non-competitive displacement from the picrotoxin binding site); conditions: duplicate experiments performed in triplicate; ± SEM; read-out: Inhibition of [35S]-TBPS binding, IC50
T1 construct: other: duplicate experiments performed in triplicate; ± SEM; other: Hill coefficient
Method: (§1) The IC50 values for the compounds of Scheme 1 (i.e., Compounds 1 and 2) as non-competitive displacers of [^35S]-TBPS from the picrotoxin binding site on GABAA receptors are reported in Table 1.
(§2) Results presented are from duplicate experiments performed in triplicate. Error limits are calculated as standard error of the mean. Methods used are known in the art (see, e.g., E. Stastna, et al., Neurosteroid Analogues. 16. A New Explanation for the Lack of Anesthetic Effects in Δ^16-Alphaxalone and Identification of a Δ^17(20) Analogue with Potent Anesthetic Activity, J. Med. Chem., 54(11), pp. 3926-34 (2011)).

[2] = molecular target: T2, rat α1β2γ2L type GABAA receptors expressed in Xenopus laevis oocytes (Rattus norvegicus, UniProt P62813+P63138); experiment: Oocyte electrophysiology: potentiation of chloride currents mediated by 2 μM GABA, and direct gating; type: cell-based; conditions: ± SEM, N≥4; for Ratio of currents measured in the presence/absence of added compound, 0.1 μM: 0.1 μM compound; for Ratio of currents measured in the presence/absence of added compound, 0.1 μM / Ratio of currents measured in the presence/absence of added compound, 1 μM / Ratio of currents measured in the presence/absence of added compound, 10 μM: 2 μM GABA; for Ratio of currents measured in the presence/absence of added compound, 1 μM: 1 μM compound; for Ratio of currents measured in the presence/absence of added compound, 10 μM: 10 μM compound; for (gating) 10 μM: ratio of compound only current/2 μM GABA current: direct current gated by 10 μM compound in the absence of GABA
T2 construct: expressed in transfected cells; host or cells: Xenopus laevis oocytes
T2 sequence (P62813 28-455): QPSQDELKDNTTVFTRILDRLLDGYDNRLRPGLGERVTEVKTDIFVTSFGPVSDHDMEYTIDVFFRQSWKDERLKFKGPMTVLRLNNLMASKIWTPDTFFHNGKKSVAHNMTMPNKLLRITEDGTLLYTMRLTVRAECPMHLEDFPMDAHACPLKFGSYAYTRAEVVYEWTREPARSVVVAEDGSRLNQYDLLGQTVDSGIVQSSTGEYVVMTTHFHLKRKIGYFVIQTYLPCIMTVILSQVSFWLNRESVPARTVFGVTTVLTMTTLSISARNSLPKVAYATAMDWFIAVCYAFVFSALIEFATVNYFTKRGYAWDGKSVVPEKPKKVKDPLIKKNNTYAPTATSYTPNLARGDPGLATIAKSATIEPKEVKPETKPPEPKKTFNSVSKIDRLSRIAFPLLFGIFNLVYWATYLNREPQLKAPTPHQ
T2 sequence (P63138 26-474): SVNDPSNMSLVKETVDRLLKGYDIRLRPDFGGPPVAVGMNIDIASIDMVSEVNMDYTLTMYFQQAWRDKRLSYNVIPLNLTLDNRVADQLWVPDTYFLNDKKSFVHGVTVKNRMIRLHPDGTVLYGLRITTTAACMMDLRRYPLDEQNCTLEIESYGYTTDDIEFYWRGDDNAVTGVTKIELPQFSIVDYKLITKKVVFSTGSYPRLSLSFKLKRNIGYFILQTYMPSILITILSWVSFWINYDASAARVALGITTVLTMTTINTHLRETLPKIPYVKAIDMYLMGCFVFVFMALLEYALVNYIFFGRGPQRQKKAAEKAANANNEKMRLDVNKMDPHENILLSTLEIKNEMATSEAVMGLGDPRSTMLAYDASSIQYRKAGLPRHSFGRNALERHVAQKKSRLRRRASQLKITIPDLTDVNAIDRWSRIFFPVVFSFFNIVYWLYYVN
T2 sequence (P18508 other isoform, or with tags, fused parts or gaps INS375LLRMFSFK, further chain): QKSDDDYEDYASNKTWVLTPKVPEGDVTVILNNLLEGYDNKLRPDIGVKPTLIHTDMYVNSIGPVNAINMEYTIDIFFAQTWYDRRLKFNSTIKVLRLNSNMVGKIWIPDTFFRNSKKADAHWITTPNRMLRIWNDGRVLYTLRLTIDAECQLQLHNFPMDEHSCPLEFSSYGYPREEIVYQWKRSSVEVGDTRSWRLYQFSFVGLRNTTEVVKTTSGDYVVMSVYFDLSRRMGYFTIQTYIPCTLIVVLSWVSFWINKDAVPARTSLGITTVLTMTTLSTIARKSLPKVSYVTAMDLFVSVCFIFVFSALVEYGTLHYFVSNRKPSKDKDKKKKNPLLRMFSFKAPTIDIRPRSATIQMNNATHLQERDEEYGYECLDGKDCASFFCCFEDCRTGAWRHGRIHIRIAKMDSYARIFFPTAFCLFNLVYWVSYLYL
Method: The compounds of the present disclosure were evaluated for the ability to potentiate chloride currents mediated by 2 μM GABA at rat α1β2γ2L type GABAA receptors expressed in Xenopus laevis oocytes and the results are shown in Table 2.
The potentiation of 2 μM GABA-mediated chloride currents at rat α1β2γ2-type GABAA receptors expressed in frog oocytes by different concentrations of Compound 1, is illustrated by the curves in FIG. 2, as well. ^aThe GABA concentration used for the control response was 2 μM. Each compound was evaluated on at least four different oocytes at the concentrations indicated, and the results reported are the ratio of currents measured in the presence/absence of added compound. Gating represents direct current gated by 10 μM compound in the absence of GABA, and this current is reported as the ratio of compound only current/2 μM GABA current. Error limits are calculated as standard error of the mean (N≥4). Methods used are known in the art (see, e.g., E. Stastna, et al., Neurosteroid Analogues. 16. A New Explanation for the Lack of Anesthetic Effects in Δ^16-Alphaxalone and Identification of a Δ^17(20) Analogue with Potent Anesthetic Activity, J. Med. Chem., 54(11), pp. 3926-34 (2011)).

tadpoles = experiment: Tadpole loss of righting reflex (LRR) and loss of swimming reflex (LSR); type: in vivo; conditions: ± SEM
Source text: Table 3 discloses the anesthetic effects of the compounds of the present disclosure. In particular, the anesthetic effect of the compounds of the present disclosure on Loss of Righting Reflex (LRR) and Loss of Swimming Reflex (LSR).
A quantal dose-response curve for loss of righting reflect (LRR) and loss of swimming reflex (LSR) caused by Compound 1 in tadpoles, is illustrated in FIG. 3, as well. ^aMethods used are known in the art (see, e.g., E. Stastna, et al., Neurosteroid Analogues. 16. A New Explanation for the Lack of Anesthetic Effects in Δ^16-Alphaxalone and Identification of a Δ^17(20) Analogue with Potent Anesthetic Activity, J. Med. Chem., 54(11), pp. 3926-34 (2011)). Error limits are calculated as standard error of the mean (N=10 or more animals at each of five or more different concentrations).

[3] = tested on: GABAA receptors (picrotoxin binding site); experiment: [35S]-TBPS displacement (non-competitive displacement from the picrotoxin binding site)
Method: as §1, §2

GABAA receptors = conditions: background statement; cited from earlier work
[4] = loss of righting reflex, read-out: Tadpole LRR EC50
[5] = loss of swimming reflex, read-out: Tadpole LSR EC50
[6] = [35S]-TBPS displacement, hydrogenated Δ17(20) double bond

SMILES | IC50 [1] | Ratio of currents measured in the presence/absence of added compound, 0.1 μM [2] | Ratio of currents measured in the presence/absence of added compound, 1 μM [2] | Ratio of currents measured in the presence/absence of added compound, 10 μM [2] | (gating) 10 μM: ratio of compound only current/2 μM GABA current [2] | EC50 (tadpoles; [4]) | EC50 (tadpoles; [5]) | melting point | also measured
COC[C@]12CC[C@@H](O)C[C@@H]1CC[C@@H]1[C@@H]2CC[C@]2(C)/C(=C\C#N)CC[C@@H]12 [Compound 1, [3α,5α,17(20)Z]-19-methoxypregn-17(20)-ene-21-nitrile] | 0.042 ± 0.004 µM | 2.88 ± 0.90 | 15.27 ± 2.58 | 45.80 ± 15.79 | 0.19 ± 0.08 | 0.159 ± 0.025 µM | 0.97 ± 0.065 µM | 166 to 168 °C | –
COC[C@]12CC[C@@H](O)C[C@@H]1CC[C@@H]1[C@@H]2CC[C@]2(C)/C(=C/C#N)CC[C@@H]12 [Compound 2, [3α,5α,17(20)E]-19-methoxypregn-17(20)-ene-21-nitrile] | 0.657 ± 0.114 µM | 0.69 ± 0.11 | 1.26 ± 0.22 | 2.97 ± 0.33 | 0.31 ± 0.25 | 2.78 ± 0.56 µM | ~10 µM | 185 to 188 °C | –
C[C@]12CC[C@@H](O)C[C@@H]1CC[C@H]1[C@@H]3CC[C@H](CC#N)[C@@]3(C)CC(=O)[C@@H]12 [Compound 5c] | – | – | – | – | – | – | – | – | Fold decrease of IC50 value relative to Compound 6b [3, 6]: about twofold; Fold increase of IC50 value relative to Compound 6a [3, 6]: about eight-fold
C[C@]12CC[C@@H](O)C[C@@H]1CC[C@@H]1[C@@H]2C(=O)C[C@]2(C)/C(=C\C#N)CC[C@@H]12 [Compound 6a] | – | – | – | – | – | – | – | – | Fold more potent at displacing [35S]-TBPS than the E isomer ([3]; Z isomer versus E isomer (Compound 6a versus Compound 6b)): about 17 fold
CC(=O)C1=CC[C@H]2[C@@H]3CC[C@H]4C[C@H](O)CC[C@]4(C)[C@H]3C(=O)C[C@]12C [Δ^16-alphaxalone] | – | – | – | – | – | – | – | – | Allosteric activity at GABAA receptors, in contrast to alphaxalone (GABAA receptors): greatly diminished allosteric activity
